# According to patent US7964531B2, “3-phenoxy-4-pyridazinol derivatives and herbicidal composition containing the same” (Mitsui Chemicals Agro, Inc., priority 2001, dated 2011):
# Tests used:
# Assay type in all cases: in vivo
# velvetleaf = test: Test Example 5: herbicidal effects, upland (soil treatment); settings: after 21 days
# Protocol: (§1) Upland soil was filled in 150 cm^2 pot, and seeds of barnyardgrass, Cyperus esculentus L., velvetleaf, black nightshade, tall morningglory and corn were sowed, and grown in a greenhouse. At the next day of seeding, a predetermined chemical dosage of the wettable powder prepared in accordance with Preparation example 5 was diluted with water and applied to soil surface. After 21 days from the treatment, herbicidal effects and crop injury against corn were judged according to the following judgment standard, and the results were shown in Tables 6 to 8.
# (§2) Judgment Standard • 0: Growth inhibition rate; 0 to 9% • 1: Growth inhibition rate; 10 to 19% • 2: Growth inhibition rate; 20 to 29% • 3: Growth inhibition rate; 30 to 39% • 4: Growth inhibition rate; 40 to 49% • 5: Growth inhibition rate; 50 to 59% • 6: Growth inhibition rate; 60 to 69% • 7: Growth inhibition rate; 70 to 79% • 8: Growth inhibition rate; 80 to 89% • 9: Growth inhibition rate; 90 to 98% • 10: Growth inhibition rate; 99 to 100%.
# barnyardgrass = test: as above; settings: after 21 days
# Protocol: as §1, §2
# tall morningglory = test: as above; settings: after 21 days
# Protocol: as §1, §2
# black nightshade = test: as above; settings: after 21 days
# Protocol: as §1, §2
# Sagittaria pygmaea = test: Test Example 4: herbicidal effects of mixed wettable powder, paddy-field pot test; settings: no second compound, after 25 days
# Protocol: (§3) Paddy filed soil was filled in 1/5000 are Wagner pot, seeds of barnyardgrass (Echinochloa oryzicola Vasing.), Scirpus joncoides and annual broad-leaved weeds (Lindernia spp. and Rotala indica) which are awaken from dormancy were mixed at the surface layer of 1 cm. Also, tubers of Cyperus serotinus, Sagittaria pygmaea and Eleocharis kuroguwai which are awaken from dormancy were planted, and further seedlings of paddy-field rice at 2.2-leaf stage were transplanted and they were grown under the flooded condition in a greenhouse. After 3 days from the transplanting, a predetermined chemical dosage of the wettable powder prepared in accordance with Preparation example 5 was diluted with water, and applied to the pot. After 25 days, herbicidal effects and crop injury against transplanted paddy-field rice were judged according to the following judgment standard, and the results were shown in Table 5. Incidentally, “-” in the table means a composition containing no effective ingredient.
# (§4) Judgment Standard • 0: Growth-inhibition rate; 0 to 15% • 1: Growth inhibition rate; 16 to 35% • 2: Growth inhibition rate; 36 to 55% • 3: Growth inhibition rate; 56 to 75% • 4: Growth inhibition rate; […] • 5: Growth inhibition rate; 96 to 100%.
# Cyperus serotinus [1] = test: as above; settings: no second compound, after 25 days
# Protocol: as §3, §4
# [2] = tested on: barnyardgrass (Echinochloa oryzicola Vasing.); test: as above; settings: no second compound, after 25 days
# Protocol: as §3, §4
# Scirpus joncoides [3] = test: as above; settings: no second compound, after 25 days
# Protocol: as §3, §4
# Eleocharis kuroguwai = test: as above; settings: no second compound, after 25 days
# Protocol: as §3, §4
# [4] = tested on: annual broad-leaved weeds (Lindernia spp. and Rotala indica); test: as above; settings: no second compound, after 25 days
# Protocol: as §3, §4
# Cyperus serotinus [5] = test: Test Example 1: herbicidal effects, paddy-field pot test; settings: wettable powder applied 3 days after transplanting, judged after 25 days
# How it was run: (§5)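 Paddy soil pots sown with dormancy-broken weed seeds mixed into the top 1 cm, plus germinated Cyperus serotinus tubers and transplanted 2.2-leaf rice seedlings, grown flooded in a greenhouse. Water-diluted wettable powder applied 3 days after transplanting; growth inhibition scored 25 days later on a 0–5 scale (0 = 0–10%, 5 = 91–100%).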
# [6] = tested on: barnyardgrass (Echinochloa oryzicola Vasing.); test: as above; settings: wettable powder applied 3 days after transplanting, judged after 25 days
# How it was run: as §5
# Scirpus joncoides [7] = test: as above; settings: wettable powder applied 3 days after transplanting, judged after 25 days
# How it was run: as §5
# [8] = tested on: annual broad-leaved weeds (Lindernia spp., Rotala indica); test: as above; settings: wettable powder applied 3 days after transplanting, judged after 25 days
# How it was run: as §5
# [9] = tested on: transplanted paddy-field rice; test: Test Example 1: crop injury against transplanted paddy-field rice; settings: wettable powder applied 3 days after transplanting, judged after 25 days
# How it was run: as §5
# [10] = tested on: transplanted paddy-field rice; test: Test Example 4: crop injury against transplanted paddy-field rice; settings: no second compound, after 25 days
# Protocol: as §3, §4
smiles,measurement,setting,value
"CS(=O)(=O)c1cc(C(F)(F)F)ccc1C(=O)c1cnoc1C1CC1 [Compound D, 5-cyclopropyl-1,2-oxazol-4-yl α,α,α-trifluoro-2-mesyl-p-tolyl ketone]",Herbicidal effects Velvetleaf,velvetleaf; D alone 6.3 g/ha,6 (Growth inhibition rate; 60 to 69%)
same,Herbicidal effects Velvetleaf,velvetleaf; D alone 12.5 g/ha,7 (Growth inhibition rate; 70 to 79%)
same,Herbicidal effects Velvetleaf,velvetleaf; D alone 25 g/ha,9 (Growth inhibition rate; 90 to 98%)
same,Herbicidal effects Barnyard grass,barnyardgrass; D alone 6.3 g/ha,3 (Growth inhibition rate; 30 to 39%)
same,Herbicidal effects Barnyard grass,barnyardgrass; D alone 12.5 g/ha,10 (Growth inhibition rate; 99 to 100%)
same,Herbicidal effects Barnyard grass,barnyardgrass; D alone 25 g/ha,10 (Growth inhibition rate; 99 to 100%)
same,Herbicidal effects Tall Morningglory,tall morningglory; D alone 6.3 g/ha,2 (Growth inhibition rate; 20 to 29%)
same,Herbicidal effects Tall Morningglory,tall morningglory; D alone 12.5 g/ha,0 (Growth inhibition rate; 0 to 9%)
same,Herbicidal effects Tall Morningglory,tall morningglory; D alone 25 g/ha,5 (Growth inhibition rate; 50 to 59%)
same,Herbicidal effects Black Nightshade,black nightshade; D alone 6.3 g/ha,5 (Growth inhibition rate; 50 to 59%)
same,Herbicidal effects Black Nightshade,black nightshade; D alone 12.5 g/ha,9 (Growth inhibition rate; 90 to 98%)
same,Herbicidal effects Black Nightshade,black nightshade; D alone 25 g/ha,9 (Growth inhibition rate; 90 to 98%)
Cc1cc(C)c(C2CC2)c(Oc2nnc(Cl)cc2O)c1 [Example 288],Herbicidal effects Sagittaria pygmaea,Sagittaria pygmaea; derivative 5 g/a,5 (Growth inhibition rate; 96 to 100%)
same,Herbicidal effects Sagittaria pygmaea,Sagittaria pygmaea; derivative 10 g/a,5 (Growth inhibition rate; 96 to 100%)
same,Herbicidal effects Cyperus serotinus,Cyperus serotinus [1]; derivative 5 g/a,4 (Growth inhibition rate; 7.6 to 95%)
same,Herbicidal effects Cyperus serotinus,Cyperus serotinus [1]; derivative 10 g/a,5 (Growth inhibition rate; 96 to 100%)
same,Herbicidal effects Barnyard grass,[2]; derivative 5 g/a,0 (Growth-inhibition rate; 0 to 15%)
same,Herbicidal effects Barnyard grass,[2]; derivative 10 g/a,0 (Growth-inhibition rate; 0 to 15%)
same,Herbicidal effects Scirpus joncoides,Scirpus joncoides [3]; derivative 5 g/a,5 (Growth inhibition rate; 96 to 100%)
same,Herbicidal effects Scirpus joncoides,Scirpus joncoides [3]; derivative 10 g/a,5 (Growth inhibition rate; 96 to 100%)
same,Herbicidal effects Eleocharis kuroguwai,Eleocharis kuroguwai; derivative 5 g/a,2 (Growth inhibition rate; 36 to 55%)
same,Herbicidal effects Eleocharis kuroguwai,Eleocharis kuroguwai; derivative 10 g/a,3 (Growth inhibition rate; 56 to 75%)
same,Herbicidal effects Broad leaf,[4]; derivative 5 g/a,5 (Growth inhibition rate; 96 to 100%)
same,Herbicidal effects Broad leaf,[4]; derivative 10 g/a,5 (Growth inhibition rate; 96 to 100%)
same,Herbicidal effects Cyperus serotinus,Cyperus serotinus [5]; chemical dosage 10 g/a,5 (Growth inhibition rate; 91 to 100%)
same,Herbicidal effects Cyperus serotinus,Cyperus serotinus [5]; chemical dosage 20 g/a,5 (Growth inhibition rate; 91 to 100%)
same,Herbicidal effects Barnyard grass,[6]; chemical dosage 10 g/a,0 (Growth inhibition rate; 0 to 10%)
same,Herbicidal effects Barnyard grass,[6]; chemical dosage 20 g/a,1 (Growth inhibition rate; 11 to 30%)
same,Herbicidal effects Scirpus joncoides,Scirpus joncoides [7]; chemical dosage 10 g/a,5 (Growth inhibition rate; 91 to 100%)
same,Herbicidal effects Scirpus joncoides,Scirpus joncoides [7]; chemical dosage 20 g/a,5 (Growth inhibition rate; 91 to 100%)
same,Herbicidal effects Broad leaf,[8]; chemical dosage 10 g/a,5 (Growth inhibition rate; 91 to 100%)
same,Herbicidal effects Broad leaf,[8]; chemical dosage 20 g/a,5 (Growth inhibition rate; 91 to 100%)
same,Crop injury against transplanted rice,[9]; chemical dosage 10 g/a,0 (Growth inhibition rate; 0 to 10%)
same,Crop injury against transplanted rice,[9]; chemical dosage 20 g/a,0 (Growth inhibition rate; 0 to 10%)
same,Crop injury against transplanted rice,[10]; derivative 5 g/a,0 (Growth-inhibition rate; 0 to 15%)
same,Crop injury against transplanted rice,[10]; derivative 10 g/a,0 (Growth-inhibition rate; 0 to 15%)
